Source: ChEMBL document CHEMBL1153550, “In vitro study of Candida tropicalis isolates exhibiting paradoxical growth in the presence of high concentrations of caspofungin” (2007)
In brackets after ≈: the same amount, converted by molar mass. Activity calls are given as the source filed them. The calls are words filed in the database; no cut-off is given here.

Legend:
[1] = system: Candida tropicalis; test: Antifungal activity against 2 x 10^7 CFU/ml Candida tropicalis ATCC 750 in RPMI 1640 medium after 24 hrs by broth microdilution method; assay type: functional; conditions: ATCC 750, 24 h
[2] = system: Candida tropicalis; test: Antifungal activity against 10^5 CFU/ml Candida tropicalis isolate 4 in RPMI 1640 medium at =< 0.09 ug/ml after 24 hrs followed by incubation in drug free medium for 48 hrs by broth microdilution method; assay type: functional, organism-based
[3] = system: Candida tropicalis; test: Antifungal activity against 10^5 CFU/ml Candida tropicalis isolate 2 in RPMI 1640 medium at 12.5 ug/ml treated for 24 hrs followed by incubation in drug free medium for 48 hrs by broth microdilution method; assay type: functional, organism-based
[4] = system: Candida tropicalis; test: Antifungal activity against 2 x 10^7 CFU/ml Candida tropicalis isolate 4 in RPMI 1640 medium after 24 hrs by broth microdilution method; assay type: functional; conditions: isolate 4, 24 h
[5] = system: Candida tropicalis; test: Antifungal activity against 2 x 10^7 CFU/ml Candida tropicalis isolate 4 in RPMI 1640 medium assessed as paradoxical growth at 12.5 ug/ml after 24 hrs by broth microdilution method; assay type: functional, organism-based
[6] = system: Candida tropicalis; test: Antifungal activity against 2 x 10^7 CFU/ml Candida tropicalis isolate 15 in antibiotic medium 3 after 24 hrs by broth microdilution method; assay type: functional; conditions: isolate 15, 24 h
[7] = system: Candida tropicalis; test: Antifungal activity against 2 x 10^7 CFU/ml Candida tropicalis isolate 6 in antibiotic medium 3 after 24 hrs by broth microdilution method; assay type: functional; conditions: isolate 6, 24 h
[8] = system: Candida tropicalis; test: Antifungal activity Candida tropicalis isolate 4 in RPMI 1640 medium at 0.19 to 6.25 ug/ml after 24 hrs by time-kill assay; assay type: functional, organism-based
[9] = system: Candida tropicalis; test: Antifungal activity against > 2 x 10^7 CFU/ml Candida tropicalis isolate 3 in RPMI 1640 medium assessed as partial growth after 24 hrs by broth microdilution method; assay type: functional, organism-based
[10] = system: Candida tropicalis; test: Antifungal activity against Candida tropicalis isolate 14 in RPMI 1640 medium assessed as paradoxical growth at 12.5 ug/ml after 24 hrs by broth microdilution method; assay type: functional, organism-based
[11] = system: Candida tropicalis; test: Antifungal activity against 10^5 CFU/ml Candida tropicalis isolate 10 in RPMI 1640 medium at 12.5 ug/ml treated for 48 hrs followed by incubation in drug free medium for 48 hrs by broth microdilution method; assay type: functional, organism-based
[12] = system: Candida tropicalis; test: Antifungal activity against > 2 x 10^7 CFU/ml Candida tropicalis isolate 13 in antibiotic medium 3 assessed as partial growth after 24 hrs by broth microdilution method; assay type: functional, organism-based
[13] = system: Candida tropicalis; test: Antifungal activity against 2 x 10^7 CFU/ml Candida tropicalis isolate 7 in antibiotic medium 3 after 24 hrs by broth microdilution method; assay type: functional; conditions: isolate 7, 24 h
[14] = system: Candida tropicalis; test: Antifungal activity against 2 x 10^7 CFU/ml Candida tropicalis isolate 6 in RPMI 1640 medium after 24 hrs by broth microdilution method; assay type: functional; conditions: isolate 6, 24 h
[15] = system: Candida tropicalis; test: Antifungal activity against Candida tropicalis isolate 13 in RPMI 1640 medium assessed as paradoxical growth at 12.5 ug/ml after 48 hrs by broth microdilution method; assay type: functional, organism-based
[16] = system: Candida tropicalis; test: Antifungal activity against > 2 x 10^7 CFU/ml Candida tropicalis isolate 10 in RPMI 1640 medium assessed as partial growth after 24 hrs by broth microdilution method; assay type: functional, organism-based
[17] = system: Candida tropicalis; test: Antifungal activity against Candida tropicalis isolate 6 in RPMI 1640 medium assessed as paradoxical growth at 12.5 ug/ml after 48 hrs by broth microdilution method; assay type: functional, organism-based
[18] = system: Candida tropicalis; test: Antifungal activity against 10^5 CFU/ml Candida tropicalis isolate 15 in RPMI 1640 medium at 12.5 ug/ml treated for 24 hrs followed by incubation in drug free medium for 48 hrs by broth microdilution method; assay type: functional, organism-based
[19] = system: Candida tropicalis; test: Antifungal activity against 10^5 CFU/ml Candida tropicalis isolate 8 in RPMI 1640 medium at 12.5 ug/ml treated for 24 hrs followed by incubation in drug free medium for 48 hrs by broth microdilution method; assay type: functional, organism-based
[20] = system: Candida tropicalis; test: Antifungal activity against 10^5 CFU/ml Candida tropicalis isolate 9 in RPMI 1640 medium at 12.5 ug/ml treated for 24 hrs followed by incubation in drug free medium for 48 hrs by broth microdilution method; assay type: functional, organism-based
[21] = system: Candida tropicalis; test: Antifungal activity against 10^5 CFU/ml Candida tropicalis isolate 1 in RPMI 1640 medium at 12.5 ug/ml treated for 24 hrs followed by incubation in drug free medium for 48 hrs by broth microdilution method; assay type: functional, organism-based
[22] = system: Candida tropicalis; test: Antifungal activity against 10^5 CFU/ml Candida tropicalis isolate 6 in RPMI 1640 medium at =< 0.09 ug/ml after 24 hrs by followed by incubation in drug free medium for 48 hrs broth microdilution method; assay type: functional, organism-based
[23] = system: Candida tropicalis; test: Antifungal activity against Candida tropicalis isolate 4 in RPMI 1640 medium assessed as paradoxical growth at 6.25 ug/ml after 48 hrs by broth microdilution method; assay type: functional, organism-based
[24] = system: Candida tropicalis; test: Antifungal activity against 10^5 CFU/ml Candida tropicalis isolate 11 in RPMI 1640 medium at 12.5 ug/ml treated for 24 hrs followed by incubation in drug free medium for 48 hrs by broth microdilution method; assay type: functional, organism-based
[25] = system: Candida tropicalis; test: Antifungal activity against Candida tropicalis isolate 5 in RPMI 1640 medium assessed as paradoxical growth at 6.25 ug/ml after 24 hrs by broth microdilution method; assay type: functional, organism-based
[26] = system: Candida tropicalis; test: Antifungal activity against > 2 x 10^7 CFU/ml Candida tropicalis isolate 7 in antibiotic medium 3 assessed as partial growth after 24 hrs by broth microdilution method; assay type: functional, organism-based
[27] = system: Candida tropicalis; test: Antifungal activity against Candida tropicalis isolate 5 in RPMI 1640 medium assessed as paradoxical growth at 12.5 ug/ml after 24 hrs by broth microdilution method; assay type: functional, organism-based

In the case of `CC[C@H](C)C[C@H](C)CCCCCCCCC(=O)N[C@H]1C[C@@H](O)[C@@H](NCCN)NC(=O)[C@@H]2[C@@H](O)CCN2C(=O)[C@H]([C@H](O)CCN)NC(=O)[C@H]([C@H](O)[C@@H](O)c2ccc(O)cc2)NC(=O)[C@@H]2C[C@@H](O)CN2C(=O)[C@H]([C@@H](C)O)NC1=O` [CASPOFUNGIN], the MIC [1] is reported as 0.024 µg/mL (≈ 0.022 µM), the Activity [2] is reported as “Active” and the Activity [3] is reported as “inactive”. For the same compound, the MIC [4] was 0.024 µg/mL (≈ 0.022 µM), the Activity [5] was “inactive” and the MIC [6] was 0.024 µg/mL (≈ 0.022 µM). The MIC [7] was 0.024 µg/mL (≈ 0.022 µM), the Activity [8] was “Active” and the Activity [9] was “inactive”. The Activity [10] was “inactive”, the Activity [11] was “inactive” and the Activity [12] was “inactive”. The MIC [13] was 0.024 µg/mL (≈ 0.022 µM), the MIC [14] was 0.024 µg/mL (≈ 0.022 µM) and the Activity [15] was “inactive”. For the same compound, the Activity [16] was “inactive”, the Activity [17] was “inactive” and the Activity [18] was “inactive”. For the same compound, the Activity [19] was “inactive”, the Activity [20] was “inactive” and the Activity [21] was “inactive”. For the same compound, the Activity [22] was “Active”, the Activity [23] was “inactive” and the Activity [24] was “inactive”. The Activity [25] was “inactive”, the Activity [26] was “inactive” and the Activity [27] was “inactive”.
